Patent US5430053A, “Isolation and structure of dictyostatin 1” (Arizona Board of Regents acting on behalf of Arizona State …, priority 1994, dated 1995)
Values after ≈ are worked out from the molar mass of the structure shown. “Also recorded” adds a separate entry of the source. Where two headings read alike, the source gives them in different places.

Assays:
OVCAR-3 ovarian = assay: NCI panel, OVCAR-3; format: cell-based, human
Description: (§1) Only two hundred years ago, many diseases ravaged humankind. Many of these diseases now have been controlled or eradicated. In the development of the means to treat or control these diseases, work with the appropriate common experimental animals was of critical importance. With the various types of cancers, and with the HIV virus, such work is presently ongoing. The research for the treatment of various types of cancer is coordinated in the United States by the National Cancer Institute (NCI). NCI, as a government entity, has been charged with assisting, inter alia, anti-cancer research. To determine whether a substance has anti-cancer activity, NCI has established a variety of protocols, one of which involves testing the candidate substance against a cell line panel containing 60 human tumor cell lines. This protocol has been verified and is generally accepted throughout the scientific community. This protocol and the established statistical means of evaluating the results obtained therefrom have been fully described in the literature. See Principles & Practice of Oncology PPO Updates, Volume 3, Number 10, October 1989, by Michael R. Boyd, M.D., Ph.D., for an in depth description of the test protocol. […]

KM 20L2 colon = assay: NCI panel, KM 20L2; format: cell-based, human
Description: as §1

SK-MEL-5 melanoma = assay: NCI panel, SK-MEL-5; format: cell-based, human
Description: as §1

[1] = tested on: NCI H460 non-small cell lung; assay: NCI panel, NCI H460; format: cell-based, human
Description: as §1

SF-295 CNS = assay: NCI panel, SF-295; format: cell-based, human
Description: as §1

A-498 renal = assay: NCI panel, A-498; format: cell-based, human
Description: as §1

human cancer cell lines = assay: NCI panel of sixty human cancer cell lines; format: cell-based; settings: for activity against human cancer cell lines (in words): NCI panel
Description: Only two hundred years ago, many diseases ravaged humankind. Many of these diseases now have been controlled or eradicated. In the development of the means to treat or control these diseases, work with the appropriate common experimental animals was of critical importance. With the various types of cancers, and with the HIV virus, such work is presently ongoing. The research for the treatment of various types of cancer is coordinated in the United States by the National Cancer Institute (NCI). NCI, as a government entity, has been charged with assisting, inter alia, anti-cancer research. To determine whether a substance has anti-cancer activity, NCI has established a variety of protocols, one of which involves testing the candidate substance against a cell line panel containing 60 human tumor cell lines. This protocol has been verified and is generally accepted throughout the scientific community. This protocol and the established statistical means of evaluating the results obtained therefrom have been fully described in the literature. See Principles & Practice of Oncology PPO Updates, Volume 3, Number 10, October 1989, by Michael R. Boyd, M.D., Ph.D., for an in depth description of the test protocol. The statistical analysis of the test protocol is explained in "Display and Analysis of Patterns of Differential Activity of Drugs Against Human Tumor Cell Lines: Development of Means Graph and COMPARE Algorithm" Journal of the National Cancer Institute Reports Vol. 81, No. 14, Pg. 1088, Jul. 14, 1989, by K. D. Paull et al. The context of both of these references is specifically incorporated herein by this reference thereto.

[2] = tested on: P388 lymphocytic leukemia; assay: P388 lymphocytic leukemia cell line (PS system) growth inhibition; format: cell-based, murine

Q: Which “activity against OVCAR-3 (in words)” value (OVCAR-3 ovarian) does the source give for `C=C/C=C\C(C)C1OC(=O)/C=C\C=C\C(C)C(O)CC(O)/C=C\C(C)C(O)C(C)CC(C)CCC(O)C1C` (stereo not drawn) [dictyostatin 1] here?
A: active and selective

Q: What about the “activity against KM 20L2 (in words)” value (KM 20L2 colon) of the same compound?
A: active and selective

Q: And the “activity against SK-MEL-5 (in words)” value (SK-MEL-5 melanoma)?
A: active and selective

Q: And the “activity against NCI H460 (in words)” value [1]?
A: active and selective

Q: And the “activity against SF-295 (in words)” value (SF-295 CNS)?
A: active and selective

Q: And the “activity against A-498 (in words)” value (A-498 renal)?
A: active and selective

Q: What about the “activity against human cancer cell lines (in words)” value (human cancer cell lines) of the same compound?
A: strong cancer cell growth inhibitory properties; also recorded: remarkably potent and specific

Q: And the “activity against human cancer cell lines (in words)” value (human cancer cell lines; listed as Dictyostatin 1)?
A: phenomenally potent (and selective) activity; also recorded: strongly inhibit growth

Q: What about the “NCI data (in words)” value (human cancer cell lines; ovarian, CNS, renal, lung (non small cell), colon, and melanoma cells) of the same compound?
A: extremely positive results

Q: And the “growth inhibition of murine P388 lymphocytic leukemia (in words)” value [2]?
A: strongly inhibit growth

Q: What about the IC50 ([2]; Mus musculus, P388, pure dictyostatin 1, read-out: P388 ED50) of the same compound?
A: 0.38 ng/mL (≈ 0.713 nM)

Q: And the “growth inhibition of murine P388 lymphocytic leukemia (in words)” value ([2]; listed as Dictyostatin 1)?
A: phenomenally potent (and selective) activity; also recorded: strongly inhibit growth
